Test results published in patent US4272437A, “Antibacterial agents, and 4-thio azetidinone intermediates” (priority 1979, dated 1981).
In brackets after ≈: the same amount, converted by molar mass.

How the values were obtained:
[1] = system: Staph. aureus A-9537 and 50% serum; assay: MIC, tube dilution, Staph. aureus A9537 + 50% serum; assay type: cell-based, Staphylococcus aureus; settings: Staphylococcus aureus, overnight 37° C., read-out: Minimum Inhibitory Concentration (M.I.C.)
Excerpt: (§1) Representative compounds of the present invention were subjected to in vitro antibiotic screening against a variety of microorganisms.

[2] = Mouse blood levels after intramuscular administration; assay type: in vivo; settings: average of 6 mice, read-out: Mouse blood level
Description: Mouse blood levels after intramuscular administration of representative compounds of the present invention were determined and are reported in the table below.

K. pneumoniae A-15130 = assay: MIC, tube dilution, Klebsiella pneumoniae A15130; assay type: cell-based; settings: Klebsiella pneumoniae, A15130, K. pneumoniae A15130; overnight 37° C.; read-out: Minimum Inhibitory Concentration (M.I.C.)
Excerpt: as §1

What does the source list for `NCCCCC1=C(C(=O)O)N2C(=O)CC2S1` (stereo not drawn) [Example 73, 2-(4'-Aminobutyl)-penem-3-carboxylic Acid]?
MIC [1]: 1 µg/mL; concentration at 10 min ([2]; 10 minutes after IM 40 mg/kg): 37900 ng/mL; concentration at 20 min ([2]; 20 minutes after IM 40 mg/kg): 30800 ng/mL; concentration at 0.5 h ([2]; 30 minutes after IM 40 mg/kg): 21200 ng/mL; concentration at 0.75 h ([2]; 45 minutes after IM 40 mg/kg): 13200 ng/mL; concentration at 1 h ([2]; 60 minutes after IM 40 mg/kg): 8400 ng/mL; concentration at 1.5 h ([2]; 90 minutes after IM 40 mg/kg): 3400 ng/mL; concentration at 2 h ([2]; 120 minutes after IM 40 mg/kg): < 3000 ng/mL; MIC (K. pneumoniae A-15130): 32 µg/mL (≈ 132 µM)
